Experimental findings from publication PMC4094919, “Screening and hit evaluation of a chemical library against blood-stage Plasmodium falciparum” (Malaria Journal, 2014) are described below.

“Also recorded” adds a separate entry of the source. Like-named read-outs stand apart in the source and are kept apart here. Marks after values point to notes of the source that are not given here.

Assay [1] deals with P. falciparum NF54 strain. Briefly: P. falciparum NF54 growth assay, 3H-hypoxanthine incorporation (hit validation). In kind it is cell-based, Plasmodium falciparum. The following applies: for EC50: Plasmodium falciparum; for Comment (activity in words on retest): hit validation, NF54 confirmatory assay. Here is the method: Synthesized compounds were tested in an alternative assay, in which ^3H-hypoxanthine incorporation was measured in the chloroquine-sensitive strain NF54 (Values were measured in duplicate, 12 points/EC50).
Cultivation of Plasmodium falciparum: Plasmodium falciparum strain NF54 was obtained from the Research and Reference Reagent Resource Center (MR4) (Manassas, VA, USA). The two strains were maintained in vitro by a modification of the method of Trager and Jensen. Cultures were maintained in A positive (A^+) human erythrocytes suspended at 5% hematocrit in complete medium. […] Parasite growth and morphology were observed daily using thin smears at 100X (oil immersion) magnification following staining with Giemsa stain.
Plasmodium falciparum growth assay: The protocol assesses the compound efficacy against the growth of P. falciparum in vitro.
All cultures used in the study are albumax II adopted. […]
Following the incubation period, the plates were harvested with a FilterMate cell harvester (Perkin Elmer) onto unifilter-96 GF/B plates, washed with distilled water to remove excess radiochemical and plates were kept for drying 37°C overnight or 60°C for 1 hr. Fifty µL of Microscint scintillation cocktail (Microscint-High Efficiency LSC-Cocktail; Perkin Elmer) added in the unifilter-96 GF/B plates and kept for 15-20 min. The plates were counted in a Top Count NXT microplate scintillation and luminescence counter (Perkin Elmer). The mean values for [^3H]-hypoxanthine incorporation in parasitized control and non-parasitized control erythrocytes were calculated.
Assay data were analysed using Graph pad prism ver.5 software. A variable sigmoid dose response curve is plotted keeping log concentrations at X-axis and % inhibition at Y-axis.

The next assay deals with P. falciparum 3D7 strain. Briefly: P. falciparum 3D7 growth inhibition, DAPI imaging (HTS screen). In kind it is cell-based. Here is the method: The P. falciparum 3D7 strain was used for the primary screen.
For the screening of the chemical library, a validated high throughput screening (HTS) method was used as reported by Duffy and Avery. In brief, intra-erythrocyte P. falciparum 3D7 parasites incubated with the compounds for 72 hours were stained with 4′-6-diamidino-2-phenylindole (DAPI) and imaged using a high throughput confocal imaging system. To ascertain inhibition of parasite growth, images of fluorescent parasites were translated, using a mathematical algorithm, into a numerical output of classified spots (parasites) as determined by fluorescence size and intensity.
EC50 and CC50 values were calculated for compounds which presented an Emax plateau using GraphPad Prism.

Where [2] appears, read: P. falciparum NF54 strain, 3H-hypoxanthine incorporation, newly synthesized sample, read-out: EC50 (NF54).
[3] abbreviates: negative logarithm of the molar EC50, NF54, read-out: pEC50 (NF54) (converted).
The mark [4] stands for this setting: NF54, heading bounds of Figure 8: not reconfirming / reconfirming / newly synthesized compounds, read-out: EC50 (bound in Figure 8).
Where [5] appears, read: Plasmodium falciparum; P. falciparum 3D7 strain, DAPI imaging, HTS screen, library sample; read-out: EC50 (3D7).
The mark [6] stands for this setting: Plasmodium falciparum; negative logarithm of the molar EC50, 3D7; read-out: pEC50 (3D7) (converted).
Where [7] appears, read: 3D7 / NF54, range over HTS (3D7) and retest after synthesis (NF54), read-out: EC50 range over the two assays.

On to `CC(=O)N1c2ccccc2[C@@H](c2ccccc2)[C@@H]1C(=O)O` (racemic) [Compound 4a, Rac (2R,3R)-1-acetyl-3-phenylindoline-2-carboxylic acid], for which the EC50 in assay [1] (setting [2]) and in assay [1] (setting [3]) was more than 10000 nM each time. Also, in assay [1], the “Comment (activity in words on retest)” value is “did not confirm activity; also recorded: Inactive”.
Consider `Cc1c(Cc2c(C)n(Cc3ccccc3C#N)c3ccccc23)c2ccccc2n1Cc1ccccc1C#N` [Compound 2, 2,2'-((3,3'-methylenebis(2-methyl-1H-indole-3,1-diyl))bis(methylene))dibenzonitrile], for which the results for the EC50 in assay [1] (setting [2]) and in assay [1] (setting [3]) were 763 nM and 794 nM, respectively. Besides, the “Comment (activity in words on retest)” value in assay [1] is reported as “EC50 in the same range as initially described during the HTS”.
On to `CC(C)(C)CC(=O)N(Cc1ccc(NC(=O)c2ccc(C#N)cc2)cc1)CC(C)(C)CN` [Compound 3, N-(4-((N-(3-amino-2,2-dimethylpropyl)-3,3-dimethylbutanamido)methyl)phenyl)-4-cyanobenzamide], for which the EC50 in assay [1] (setting [4]) was more than 1000 nM; in assay [1] (setting [2]), 3000 nM; in assay [1] (setting [3]), 3160 nM; with P. falciparum 3D7 strain (setting [5]), 222 nM; in the assay with P. falciparum 3D7 strain (setting [6]), 200 nM. The “Comment (activity in words on retest)” value in assay [1] was “Weakly active”.
For the compound `CC(=O)N1c2ccccc2C(c2ccccc2)C1C(=O)O` (stereo not drawn) [Compound 4], the EC50 is more than 1000 nM in assay [1] (setting [4]), 172 nM with P. falciparum 3D7 strain (setting [5]) and 158 nM with P. falciparum 3D7 strain (setting [6]).
Turning to `COc1ccc(NC(=O)c2cnn(-c3ccccc3)c2-c2ccccc2)c(OC)c1` [Compound 5, N-(2,4-dimethoxyphenyl)-1,5-diphenyl-1H-pyrazole-4-carboxamide], the EC50 in assay [1] (setting [4]) is more than 1000 nM; in assay [1] (P. falciparum NF54, after synthesis, read-out: EC50 (NF54)), approximately 4000 nM; in assay [1] (setting [2]) it was 3900 nM; in assay [1] (setting [3]), 3980 nM; in the assay with P. falciparum 3D7 strain (setting [5]), 870 nM; in the assay on P. falciparum 3D7 strain (setting [6]), 794 nM. In assay [1], the “Comment (activity in words on retest)” value was “Weakly active”.
`CC(=O)N1CCN(Cc2coc(Cc3ccccc3)n2)CC1` [Compound 6, 1-(4-((2-benzyloxazol-4-yl)methyl)piperazin-1-yl)ethanone]: the EC50 in assay [1] (setting [4]) is more than 1000 nM; in assay [1] (setting [2]) it was more than 10000 nM; in assay [1] (setting [3]) it was more than 10000 nM; in the assay on P. falciparum 3D7 strain (setting [5]), less than 10 nM; with P. falciparum 3D7 strain (setting [6]), less than 10 nM. The “Comment (activity in words on retest)” value in assay [1] is on record as “Inactive”.
For the compound `O=C(Nc1cc(=O)[nH]c2nc(-c3ccccc3)nn12)C1CCCCC1` [Compound 7, N-(5-oxo-2-phenyl-4,5-dihydro-[1,2,4]triazolo[1,5-a]pyrimidin-7-yl)cyclohexanecarboxamide], the EC50 in assay [1] (setting [7]) was 450 to 648 nM; in assay [1] (setting [4]), less than 1000 nM; in assay [1] (setting [2]) it was 450 nM; in assay [1] (setting [3]), 501 nM; with P. falciparum 3D7 strain (setting [5]), 648 nM; in the assay with P. falciparum 3D7 strain (setting [6]) it was 631 nM. Also, in assay [1], the “Comment (activity in words on retest)” value was “Validated hit, CHEMBL587310^f)”.
On to `COc1ccc(-c2cnc3sc(NC4CCC(N)CC4)nn23)cn1` (stereo not drawn) [Compound 8, N1-(5-(6-methoxypyridin-3-yl)imidazo[2,1-b][1,3,4]thiadiazol-2-yl)cyclohexane-1,4-diamine], for which the EC50 was 284 to 287 nM in assay [1] (3D7 / NF54, read-out: EC50 range over the two assays); 284 nM in assay [1] (NF54, read-out: EC50 (NF54)); less than 1000 nM in assay [1] (NF54, read-out: EC50 (bound in Figure 8)); 316 nM in assay [1] (NF54, read-out: pEC50 (NF54) (converted)); 297 nM with P. falciparum 3D7 strain (Plasmodium falciparum, 3D7, read-out: EC50 (3D7)); 316 nM in the assay with P. falciparum 3D7 strain (Plasmodium falciparum, 3D7, read-out: pEC50 (3D7) (converted)).
With `CCOc1ncccc1C(=O)Nc1cc(C(F)(F)F)ccc1Oc1cccc(OC)c1` [Compound 9, 2-ethoxy-N-(2-(3-methoxyphenoxy)-5-(trifluoromethyl)phenyl)nicotinamide], the EC50 in assay [1] (setting [7]) is 309 to 393 nM; in assay [1] (setting [4]), less than 1000 nM; in assay [1] (setting [2]) it was 309 nM; in assay [1] (setting [3]), 316 nM; with P. falciparum 3D7 strain (setting [5]) it was 393 nM; with P. falciparum 3D7 strain (setting [6]), 398 nM. The “Comment (activity in words on retest)” value in assay [1] is recorded as “Validated hit”.
In the case of `O=C(O)C1Cc2c([nH]c3ccccc23)C(c2ccc(Cl)cc2Cl)N1` (stereo not drawn) [Compound 14], the EC50 was 350 nM in the assay with P. falciparum 3D7 strain (setting [5]) and 316 nM in the assay with P. falciparum 3D7 strain (setting [6]).
In the case of `O=C(O)[C@@H]1Cc2c([nH]c3ccccc23)[C@H](c2ccc(Cl)cc2Cl)N1` [Compound 14a, (1S,3S)-1-(2,4-dichlorophenyl)-2,3,4,9-tetrahydro-1H-pyrido[3,4-b]indole-3-carboxylic acid], the EC50 in assay [1] (setting [4]) was less than 1000 nM; in assay [1] (setting [2]), more than 10000 nM; in assay [1] (setting [3]) it was more than 10000 nM. Also, the “Comment (activity in words on retest)” value in assay [1] is given as “Inactive”.
Consider `O=C(O)[C@@H]1Cc2c([nH]c3ccccc23)[C@@H](c2ccc(Cl)cc2Cl)N1` [Compound 14b, (1R,3S)-1-(2,4-dichlorophenyl)-2,3,4,9-tetrahydro-1H-pyrido[3,4-b]indole-3-carboxylic acid], for which the EC50 in assay [1] (setting [4]) was less than 1000 nM; in assay [1] (setting [2]) it was 167 nM; in assay [1] (setting [3]), 158 nM. Also, the “Comment (activity in words on retest)” value in assay [1] was “Hit”.
The corresponding values for `O=C(O)[C@H]1Cc2c([nH]c3ccccc23)[C@@H](c2ccc(Cl)cc2Cl)N1` [Compound 14c] are less than 1000 nM, 4200 nM, 3980 nM and “weak activity; also recorded: Weakly active”.
The corresponding values for `O=C(O)[C@H]1Cc2c([nH]c3ccccc23)[C@H](c2ccc(Cl)cc2Cl)N1` [Compound 14d] are less than 1000 nM, more than 10000 nM, more than 10000 nM and “Inactive”.
Consider `Cc1ccc(S(=O)(=O)N2CC(C)N(Cc3ccc(C(=O)NC4CC4)cc3)CC2C)cc1` (stereo not drawn) [Compound 15, N-cyclopropyl-4-((2,5-dimethyl-4-tosylpiperazin-1-yl)methyl)benzamide], for which the EC50 with P. falciparum 3D7 strain (setting [5]) was 678 nM.
In the case of `Cc1ccc(S(=O)(=O)N2C[C@H](C)N(Cc3ccc(C(=O)NC4CC4)cc3)C[C@@H]2C)cc1` [Compound 15a], the “Difference in activity between the two enantiomers” value in assay [1] (15a versus 15b, NF54 EC50) is “more than 15 fold”. Also, the results for the EC50 in assay [1] (setting [4]), in assay [1] (setting [2]) and in assay [1] (setting [3]) were less than 1000 nM, 44 nM and 39.8 nM, respectively. The “Comment (activity in words on retest)” value in assay [1] is listed as “Hit”.
In the case of `Cc1ccc(S(=O)(=O)N2C[C@@H](C)N(Cc3ccc(C(=O)NC4CC4)cc3)C[C@H]2C)cc1` [Compound 15b], the EC50 in assay [1] (setting [4]) was less than 1000 nM; in assay [1] (setting [2]), 679 nM; in assay [1] (setting [3]), 631 nM. In addition, in assay [1], the “Comment (activity in words on retest)” value is on record as “Hit”.
The corresponding values for `Cc1ccc(S(=O)(=O)N2CCN(Cc3ccc(C(=O)NC4CC4)cc3)CC2)cc1` [Compound 15c, N-cyclopropyl-4-((4-tosylpiperazin-1-yl)methyl)benzamide] are less than 1000 nM, 535 nM, 501 nM and “Hit”.
Regarding `CC(C)=CCN1CCC2(CC1)CN(C(=O)Nc1cccc(C#N)c1)c1ccc(C)cc12` [Compound 16], the EC50 was 990 nM in the assay with P. falciparum 3D7 strain (Plasmodium falciparum, 3D7; read-out: EC50 (3D7)); less than 1000 nM in the assay on P. falciparum 3D7 strain (Plasmodium falciparum, 3D7; read-out: Potency at HTS (3D7)); 1000 nM in the assay with P. falciparum 3D7 strain (Plasmodium falciparum, 3D7; read-out: pEC50 (3D7) (converted)).
For the compound `O=C(Nc1cccc(Cl)c1)N1CC2(CCN(Cc3ccccc3)CC2)c2ccccc21` [Compound 17, 1'-benzyl-N-(3-chlorophenyl)spiro[indoline-3,4'-piperidine]-1-carboxamide], the EC50 in assay [1] (setting [4]) is less than 1000 nM; in assay [1] (setting [2]) it was 309 nM; in assay [1] (setting [3]), 316 nM. For the same compound, in assay [1], the “Comment (activity in words on retest)” value was “Hit”.
